This is an account of results in patent publication US8367655B2, “Pyridoindolobenzox—and thiazepine derivatives and uses thereof” (Daya Drug Discoveries, Inc., priority 2009, dated 2013).

Data set [1] addresses D2 receptor (Homo sapiens, UniProt P14416). The data set can be described thus: Serotonin and dopamine receptor binding: D2.
For data set [2], the target named is T1, 5-HT2C receptor (Homo sapiens, UniProt P28335).
T1 sequence (P28335 33-458): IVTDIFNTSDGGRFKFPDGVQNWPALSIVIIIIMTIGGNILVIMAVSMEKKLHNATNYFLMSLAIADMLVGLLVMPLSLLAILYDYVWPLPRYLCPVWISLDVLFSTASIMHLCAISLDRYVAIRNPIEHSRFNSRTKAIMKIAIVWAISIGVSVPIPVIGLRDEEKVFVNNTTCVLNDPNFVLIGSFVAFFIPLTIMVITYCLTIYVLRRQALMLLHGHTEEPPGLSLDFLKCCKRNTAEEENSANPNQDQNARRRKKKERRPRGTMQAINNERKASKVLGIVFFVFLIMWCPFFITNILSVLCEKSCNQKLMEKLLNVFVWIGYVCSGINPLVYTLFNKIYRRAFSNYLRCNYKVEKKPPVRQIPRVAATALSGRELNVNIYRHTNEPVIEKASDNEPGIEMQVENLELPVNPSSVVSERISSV
The data set can be described thus: Serotonin and dopamine receptor binding: 5-HT2C.

The target of data set [3] is 5-HT2A receptor (Homo sapiens, UniProt P28223). The data set can be described thus: Serotonin and dopamine receptor binding: 5-HT2A.
5-HT2A receptor, sequence (P28223 whole entry): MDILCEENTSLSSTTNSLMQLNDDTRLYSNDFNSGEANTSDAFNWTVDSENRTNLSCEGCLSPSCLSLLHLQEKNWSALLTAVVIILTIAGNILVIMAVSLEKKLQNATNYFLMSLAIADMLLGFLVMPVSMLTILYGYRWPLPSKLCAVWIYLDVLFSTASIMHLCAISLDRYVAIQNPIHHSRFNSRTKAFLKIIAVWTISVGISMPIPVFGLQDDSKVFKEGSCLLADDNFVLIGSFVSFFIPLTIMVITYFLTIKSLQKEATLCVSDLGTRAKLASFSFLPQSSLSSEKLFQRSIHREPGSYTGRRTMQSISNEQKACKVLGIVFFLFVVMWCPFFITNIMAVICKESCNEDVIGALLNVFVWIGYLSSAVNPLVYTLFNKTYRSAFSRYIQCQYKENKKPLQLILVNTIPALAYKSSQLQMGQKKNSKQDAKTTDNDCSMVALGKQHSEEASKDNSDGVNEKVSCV
Data set [4] has as its system rats. The data set can be described thus: Amphetamine-induced sensorimotor gating deficits (prepulse inhibition, PPI). Format: in vivo. As to conditions: 1 mg/kg ip, amphetamine 3 mg/kg ip, 120 dB pulse, 71 dB pre-pulse, p<0.01. On the procedure: Effects of compound 2 on amphetamine-induced sensorimotor gating deficits (FIG. 4 Table). Once the compound 2 dose range was determined by motor assessments, a separate group of rats were used to study PPI. Rats were treated with vehicle (75% DMSO) or DDD-016 in the DMSO vehicle; 30 min later amphetamine (3 mg/kg ip) or saline was administered, and the startle session was initiated after an additional 30 min. (The 3 mg/kg dose of amphetamine is sufficient to induced robust deficits in PPI; 1 mg/kg is subtrheshold; data not shown.) Shown are startle data from a 120 dB pulse, preceded 100 ms by a 71 dB pre-pulse.

Data set [5] has as its system rats. The data set can be described thus: Amphetamine-induced motor activity. Type of data set: in vivo. The method, then:
Effects of compound 2 on amphetamine-induced motor activity (FIG. 4 Graph). All rats were habituated to the motor box for 30 min followed by injection of compound 2 or vehicle. After 30 min all rats were injected with 1 mg/kg, i.p. amphetamine (a dose that is known to elevate locomotion in rats) and their motor activity was recorded for 2 hr.

The test system of data set [6] is rats. Nature of the data set: Pilot dose-selection study (catalepsy, locomotion). Type of data set: in vivo.

By IC50 is commonly meant the concentration that inhibits the measured activity by half.

D2 receptor, sequence (P14416 whole entry): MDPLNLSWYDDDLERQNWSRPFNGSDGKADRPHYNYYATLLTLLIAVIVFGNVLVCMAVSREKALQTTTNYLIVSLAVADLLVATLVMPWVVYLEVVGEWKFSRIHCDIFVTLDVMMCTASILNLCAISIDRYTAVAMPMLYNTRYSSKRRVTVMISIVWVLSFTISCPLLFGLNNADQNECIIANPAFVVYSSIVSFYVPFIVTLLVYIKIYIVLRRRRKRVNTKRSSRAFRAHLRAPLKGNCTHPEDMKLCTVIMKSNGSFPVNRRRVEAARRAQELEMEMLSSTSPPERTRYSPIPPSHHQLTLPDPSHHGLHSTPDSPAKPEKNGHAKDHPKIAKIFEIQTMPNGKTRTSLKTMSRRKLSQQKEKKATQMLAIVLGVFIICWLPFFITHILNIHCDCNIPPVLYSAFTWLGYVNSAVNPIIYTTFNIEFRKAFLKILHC

In the case of `O=C(CCCN1CCc2c(c3cccc4c3n2-c2ccccc2CS4)C1)c1ccc(F)cc1` [Compound 6], the figures for the IC50 in data set [1], in data set [2] and in data set [3] were 8 nM, 80 nM and 5 nM, respectively.
The matching figures for `CN1CCc2c(c3cccc4c3n2-c2ccccc2CO4)C1` [Compound 9]: 500 nM, 50 nM and 8 nM.
The matching figures for `CN1CC[C@H]2[C@@H](C1)c1cccc3c1N2c1ccccc1CS3` [Compound 3]: 500 nM, 15 nM and 5 nM.
Regarding `CN1CCc2c(c3cccc4c3n2-c2ccccc2CS4)C1` [Compound 2], the IC50 in data set [1] was determined as 80 nM; in data set [2], 10 nM; in data set [3], 1 nM. For the same compound, in data set [4], the “effect on amphetamine-induced % PPI deficit” value is on record as “blunted this deficit”. The “horizontal activity, comparison of doses” value in data set [5] (3 mg/kg vs 10 mg/kg, ANOVA with post hoc Newman Keuls, p<0.05) is “difference between 3 mg/kg and 10 mg/kg”. Besides, the “effect on amphetamine-induced motor activity” value in data set [5] (10 mg/kg, 30 min before 1 mg/kg i.p. amphetamine, activity recorded 2 hr) is reported as “trend for 10 mg/kg of 2 to reduce the effects of amphetamine”. Also, the locomotor effect entry in data set [6] (3 mg/kg, vs vehicle (75% DMSO)) was “did not differentiate from vehicle”; in data set [6] (10 mg/kg), “Some locomotor reduction”. Also, the catalepsy result in data set [6] (30 mg/kg ip, without a loss of right reflex) is recorded as “robust catalepsy”.
As for `CN1CC[C@@H]2[C@@H](C1)c1cccc3c1N2c1ccccc1CS3` [Compound 4], the IC50 worked out at 20 nM in data set [1], 5 nM in data set [2] and 3 nM in data set [3]. In addition, in data set [3] (stated jointly for 5-HT2A, 5-HT2C and D2 receptors), the “receptor binding activity (in words)” value is “most potent amongst all”.
